This note sets out measurements from PubChem BioAssay AID732 (Emory University Molecular Libraries Screening Center, 2007).

This assay concerns in vivo angiogenesis, blood vessel count. The assay can be described thus: angiogenesis inhibition in living animals, in vivo study, HTS (AID 732).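 Note: zebrafish embryos dosed at one day post fertilization; 0% = reference inhibitor and 100% = plate mean.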 The following applies: hits give low values;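 tested at 30 µM in the well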.

“And” between values parts separate entries of the source, which are not always exact repeats. Identical values can stand only once. The source made the active and inactive calls. The rule behind the calls is not given here.

Take `CC(O)C(O)[C@H]1CNc2nc(N)[nH]c(=O)c2N1` (stereo partly specified): the vessel count % control was 125% (inactive).

Consider `O=c1[nH]c2cc(Cl)ccc2c(O)c1-c1ccc(Oc2ccccc2)cc1`, for which the vessel count % control was 66.8% (inactive).

On to `COc1ccc2c(c1)C13CCCCC1C(C2)N(C)CC3` (stereo unspecified), for which the vessel count % control is 108% (inactive).

Regarding `CCC(CO)Nc1nc(NCc2ccccc2)c2ncn(C(C)C)c2n1` (stereo unspecified), the vessel count % control was 82.5% (inactive).

For the molecule `O=c1[nH]c2ccccc2n1C1CCN(CCCC(c2ccc(F)cc2)c2ccc(F)cc2)CC1`, the vessel count % control is 52.9% (inactive).

Take `CC(C)(C)c1ccc(C(O)CCCN2CCC(C(O)(c3ccccc3)c3ccccc3)CC2)cc1` (stereo unspecified): the vessel count % control was 99.8% (inactive).

With `Cc1ncc(CNC(=O)N(CCCl)N=O)c(N)n1`, the vessel count % control is 90.1% (inactive).

For the molecule `Cc1ccccc1/C=C/C1=NCCN1`, the vessel count % control is 102% (inactive).

As for `CCOC(=O)C12CC1/C(=N/O)c1ccccc1O2` (stereo unspecified), the vessel count % control is 104% (inactive).

`CN1CCN(C2=Nc3ccccc3Oc3ccc(Cl)cc32)CC1`: the vessel count % control was 123% (inactive).

For the molecule `CCCOc1ccccc1-c1nc2n[nH]nc2c(=O)[nH]1`, the vessel count % control is 119% (inactive).

With `COC(=O)C1=C(C)NC(C)=C(C(=O)OC)C1c1ccccc1[N+](=O)[O-]`, the vessel count % control is 112% (inactive).

On to `COC(=O)c1c(-c2cc(OC)c(OC)c(OC)c2)c2ccnc(OCc3ncccn3)c2c(=O)n1Cc1ccnc(C)c1`, for which the vessel count % control is 99.4% (inactive).

For `O=c1c(-c2ccc(O)cc2)coc2cc(O)cc(O)c12`, the vessel count % control is 107% (inactive).

Consider `C=CCN1CCC23c4c5ccc(O)c4O[C@H]2C(=O)CC[C@@]3(O)C1C5` (stereo partly specified), for which the vessel count % control was 88.4% (inactive).

For the molecule `Cc1cccc(C(=O)NCN2CCN(c3ccccc3C#N)CC2)c1`, the vessel count % control is 110% (inactive).

`CCCn1c(=O)c2c(ncn2C)n(CCC)c1=O`: the vessel count % control was 98.7% (inactive).

`O=S1(=O)N(CCN2CC=C(c3c[nH]c4cc(F)ccc34)CC2)c2cccc3c2N1CCC3`: the vessel count % control was 148% (inactive).

Consider `CC(C)Oc1cccnc1N(C)C1CCN(Cc2ccccc2)CC1`, for which the vessel count % control was 98.1% (inactive).

With `NC(=O)c1cc[n+](CC2=C(C(=O)O)N3C(=O)[C@@H](NC(=O)[C@@H](c4ccccc4)S(=O)(=O)[O-])[C@H]3SC2)cc1`, the vessel count % control was 99.9% (inactive).

Take `CCCNC(=O)NS(=O)(=O)c1ccc(Cl)cc1`: the vessel count % control is 124% (inactive).

As to `O=C(OCCN1CCCCC1)c1c[nH]c2ccccc12`, the vessel count % control was 109% (inactive).

Take `C=CCc1ccccc1OCC(O)CNC(C)C` (stereo unspecified): the vessel count % control was 105% (inactive).

With `CC(CN1c2ccccc2Sc2ccccc21)N(C)C` (stereo unspecified), the vessel count % control was 97.7% (inactive).

In the case of `NCC(O)c1ccc(O)cc1` (stereo unspecified), the vessel count % control was 103% (inactive).

Consider `CC(C(=O)O)c1cccc(C(=O)c2ccccc2)c1` (stereo unspecified), for which the vessel count % control is 122% (inactive).

Consider `O=C(/C=C/c1ccc(O)cc1)c1ccc(O)cc1O`, for which the vessel count % control was 98.4% (inactive).

For `COc1ccc([C@@H]2Sc3ccccc3N(CCN(C)C)C(=O)[C@@H]2OC(C)=O)cc1`, the vessel count % control is 107% (inactive).

With `CCCn1c(=O)c2[nH]c(C3CCCC3)nc2n(CCCOC(=O)c2ccc(S(=O)(=O)F)cc2)c1=O`, the vessel count % control was 117% (inactive).

Take `COc1cc(C(O)C(=O)O)ccc1O` (stereo unspecified): the vessel count % control was 92.5% (inactive).

Take `Cc1cccc(C)c1NC(=O)C[N+](C)(C)C`: the vessel count % control is 87.6% (inactive).

In the case of `C=CC(N)CCC(=O)O` (stereo unspecified), the vessel count % control is 85.7% (inactive).

Consider `OCc1ccc(-c2nn(Cc3ccccc3)c3ccccc23)o1`, for which the vessel count % control was 78.2% (inactive).

Regarding `COc1cc(C(=O)OCCCN2CCCN(CCCOC(=O)c3cc(OC)c(OC)c(OC)c3)CC2)cc(OC)c1OC`, the vessel count % control is 116% (inactive).

For `O=C(Nc1cccc(C(=O)Nc2ccc(S(=O)(=O)O)c3cc(S(=O)(=O)O)cc(S(=O)(=O)O)c23)c1)Nc1cccc(C(=O)Nc2ccc(S(=O)(=O)O)c3cc(S(=O)(=O)O)cc(S(=O)(=O)O)c23)c1`, the vessel count % control was 88.2% (inactive).

In the case of `CC1CCN=C(N)S1` (stereo unspecified), the vessel count % control is 92% (inactive).

On to `Nc1ccncc1`, for which the vessel count % control is 118% (inactive).

With `N[C@@H](Cc1c[nH]c2ccc(O)cc12)C(=O)O`, the vessel count % control was 81.8% (inactive).

Turning to `O=C(OCCN1CCOCC1)C1(c2ccccc2)CCCCC1`, the vessel count % control is 91.6% (inactive).

Consider `Nc1ncnc2c1ncn2C1CCCC1`, for which the vessel count % control was 81.5% (inactive).

For `Clc1ccc(N2CC3CCC(C2)N3)nn1`, the vessel count % control is 106% (inactive).

As for `Cc1cc(O)c2c(c1)C(=O)c1cc(O)cc(O)c1C2=O`, the vessel count % control was 87.5% (inactive).

Take `COc1cccc(OC)c1OCCNCC1CSc2ccccc2O1` (stereo unspecified): the vessel count % control was 71.1% (inactive).

With `Oc1cc2c(cc1O)CN(C(=S)NCCc1ccc(Cl)cc1)CCC2`, the vessel count % control is 93.3% (inactive).

Regarding `CC(C(O)c1ccc(O)cc1)N1CCC(Cc2ccccc2)CC1` (stereo unspecified), the vessel count % control was 0% (inactive).

Consider `CCCn1c(=O)[nH]c(=O)c2[nH]cnc21`, for which the vessel count % control is 97.5% (inactive).

Turning to `Cc1c(CC(C)(C)C(=O)O)n(Cc2ccc(Cl)cc2)c2ccc(F)cc12`, the vessel count % control is 127% (inactive).

Take `N[C@H](C(=O)O)[C@H]1C[C@@H]1C(=O)O`: the vessel count % control was 92.9% (inactive).

With `CC(C)(C)NCC(O)COc1cccc2[nH]c(=O)[nH]c12` (stereo unspecified), the vessel count % control was 103% (inactive).

For the molecule `CN(C)c1ccc(/C=C2\C(=O)Nc3ccccc32)cc1`, the vessel count % control is 36.7%.

Consider `c1ccc(C2CC2)c(OCC2=NCCN2)c1`, for which the vessel count % control is 104% (inactive).

For the molecule `Oc1[nH]c2ccccc2c1C1=Nc2ccc(Br)cc2/C1=N\OCCN1CCCC1`, the vessel count % control is 91.2% (inactive) and 74% (inactive).

For the molecule `CN1CCC[C@H]1c1cccnc1`, the vessel count % control is 120% (inactive).

As for `CN(C)CCC(c1ccc(Cl)cc1)c1ccccn1` (stereo unspecified), the vessel count % control was 128% (inactive).

For `CC(C)(C)c1o[nH]c(=O)c1CC(N)C(=O)O` (stereo unspecified), the vessel count % control was 106% (inactive).

`CC(=O)O[C@H]1C[C@@H]2CC[C@@H]3[C@H](CC[C@@]4(C)[C@H]3C[C@H]([N+]3(C)CCCCC3)[C@@H]4OC(C)=O)[C@@]2(C)C[C@@H]1[N+]1(C)CCCCC1`: the vessel count % control is 98% (inactive).

For the molecule `OCCN(CCO)c1nc(N2CCCCC2)c2nc(N(CCO)CCO)nc(N3CCCCC3)c2n1`, the vessel count % control is 109% (inactive).

With `O=c1[nH]c2ccccc2n1CCCN1CCN(C(c2ccccc2)c2ccccc2)CC1`, the vessel count % control is 120% (inactive).

Take `Cc1ccc(=O)n(-c2ccccc2)c1`: the vessel count % control is 92.7% (inactive).

On to `N[C@@H](Cc1ccc(O)c(I)c1)C(=O)O`, for which the vessel count % control is 108% (inactive).

With `N[C@@H]1CONC1=O`, the vessel count % control was 90.5% (inactive).

On to `CCN(CC)CCOC(=O)c1ccc(N)cc1`, for which the vessel count % control was 112% (inactive).

For `CN1CCC(=C2c3ccccc3CC(=O)c3sccc32)CC1`, the vessel count % control was 105% (inactive).

With `C[N+]1(C)CCN(c2ccccc2)CC1`, the vessel count % control is 89.3% (inactive).

With `COc1ccccc1N1CCN(CCN2C(=O)CC3(CCCC3)CC2=O)CC1`, the vessel count % control was 89.5% (inactive).

For the molecule `C#CCN(C)[C@@H](C)Cc1ccccc1`, the vessel count % control was 74.7% (inactive).

For `CCN(CC)c1ncnc2c1ncn2[C@@H]1O[C@H](COP(=O)(O)OP(=O)(O)C(Br)(Br)P(=O)(O)O)[C@@H](O)[C@H]1O`, the vessel count % control is 81.9% (inactive).

Consider `CN1CCN(CCCN2c3ccccc3Sc3ccc(C(F)(F)F)cc32)CC1`, for which the vessel count % control is 105% (inactive).

With `CC(Cc1ccc(OCC(=O)O)cc1)NCC(O)c1cccc(Cl)c1` (stereo unspecified), the vessel count % control is 97.7% (inactive).

For `Cc1ccc2[nH]c(O)c(C3=Nc4ccc(Br)cc4C3=O)c2c1`, the vessel count % control was 108% (inactive).

Consider `CC(C(=O)O)c1ccc(CC2CCCC2=O)cc1` (stereo unspecified), for which the vessel count % control was 113% (inactive).

In the case of `CC(C)(C)NCC(O)c1ccc(O)c(CO)c1` (stereo unspecified), the vessel count % control was 122% (inactive) and 102% (inactive).

For the molecule `COCCc1ccc(OCC(O)CNC(C)C)cc1` (stereo unspecified), the vessel count % control was 128% (inactive).

On to `Nc1cc(=O)[nH]c(N)n1`, for which the vessel count % control was 119% (inactive).

Take `Oc1cc(O)c2c(c1)O[C@H](c1ccc(O)c(O)c1)[C@@H](O)C2`: the vessel count % control was 114% (inactive).

On to `COc1ccc2c(c[n+](C)c3c4cc5c(cc4ccc23)OCO5)c1OC`, for which the vessel count % control was 124% (inactive).

As for `C[N+](C)(C)CC(=O)O`, the vessel count % control is 94% (inactive).

Turning to `CCCNC(C)C(=O)Nc1ccccc1C` (stereo unspecified), the vessel count % control was 108% (inactive).

For `O=C(O)CCC(C(=O)O)N1C(=O)c2ccccc2C1=O` (stereo unspecified), the vessel count % control is 105% (inactive).

Take `CC[C@@H](C)[C@H]1O[C@]2(CC[C@@H]1C)C[C@@H]1C[C@@H](C/C=C(\C)[C@@H](O[C@H]3C[C@H](OC)[C@@H](O[C@H]4C[C@H](OC)[C@@H](O)[C@H](C)O4)[C@H](C)O3)[C@@H](C)/C=C/C=C3\CO[C@@H]4[C@H](O)C(C)=C[C@@H](C(=O)O1)[C@]34O)O2`: the vessel count % control was 78.7% (inactive).

Take `C=CCN1CCc2c(cc(O)c(O)c2Cl)C(c2ccccc2)C1` (stereo unspecified): the vessel count % control was 121% (inactive).

For `CCCC(C)(COC(N)=O)COC(=O)NC(C)C` (stereo unspecified), the vessel count % control is 103% (inactive).

As for `O=C(O)CCc1nc(-c2ccccc2)c(-c2ccccc2)o1`, the vessel count % control was 73.7% (inactive).

Turning to `NCCc1cnc[nH]1`, the vessel count % control is 93.3% (inactive).

Turning to `Oc1cc2c(cc1O)C(c1ccccc1)CNCC2` (stereo unspecified), the vessel count % control is 85.1% (inactive).

Turning to `N#C/C(=C\c1ccc(O)c(O)c1)C(=O)c1ccc(O)c(O)c1`, the vessel count % control is 124% (inactive).
